Key:
[1] = test system: rats; settings: cited from earlier work; for seeking drugs of abuse (cocaine or methamphetamine) after a period of extinction: rats pretreated
[2] = Kinetic solubility; format: physicochemical; settings: phosphate buffer, mean ± SD
[3] = cited from earlier work
[4] = target: T1, CB1 (Homo sapiens, UniProt P21554); experiment: CB1 calcium mobilization assay; format: cell-based; settings: IC50 relative to 2
[5] = target: T1, CB1; settings: absence of CP55,940; up to 10 μM
[6] = test system: male Sprague-Dawley rats; experiment: Drug-induced reinstatement of extinguished cocaine-seeking behavior; format: in vivo, rat; settings: 10 mg/kg i.p. pretreatment, cocaine prime 10 mg/kg i.p., p > 0.05
[7] = test system: P-gp (MDR1); experiment: in vitro; settings: dog, MDCK-MDR1, pH 7.4

T1 sequence (P21554 whole entry): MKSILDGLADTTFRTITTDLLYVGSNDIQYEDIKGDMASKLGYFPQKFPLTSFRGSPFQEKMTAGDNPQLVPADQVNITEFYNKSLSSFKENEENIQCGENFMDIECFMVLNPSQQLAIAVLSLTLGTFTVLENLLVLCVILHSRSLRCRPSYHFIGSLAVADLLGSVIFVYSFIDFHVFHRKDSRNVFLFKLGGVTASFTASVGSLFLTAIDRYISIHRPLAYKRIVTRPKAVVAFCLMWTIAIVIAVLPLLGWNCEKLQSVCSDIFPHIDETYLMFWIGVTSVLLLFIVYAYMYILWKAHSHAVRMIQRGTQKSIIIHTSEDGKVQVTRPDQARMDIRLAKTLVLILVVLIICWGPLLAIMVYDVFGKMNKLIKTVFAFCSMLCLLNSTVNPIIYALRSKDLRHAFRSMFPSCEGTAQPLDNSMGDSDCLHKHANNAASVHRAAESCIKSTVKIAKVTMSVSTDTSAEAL

In the case of CCc1c(C(=O)NCCc2ccc(N3CCCCC3)cc2)[nH]c2ccc(Cl)cc12 [Compound 1], the “seeking drugs of abuse (cocaine or methamphetamine) after a period of extinction” value (“seeking drugs of abuse” for short) [1] is given as “less likely to seek drugs of abuse”.

In the case of O=C(Nc1ccc(Cl)cc1)Nc1cccc(-c2cccc(N3CCCC3)n2)c1 [Compound 2, 1-(4-chlorophenyl)-3-{3-[6-(pyrrolidin-1-yl)pyridin-2-yl]phenyl}urea], the solubility at 2 h [2] is listed as less than 1 µM and the “seeking drugs of abuse” value [1] is listed as “less likely to seek drugs of abuse”.

For N#Cc1ccc(NC(=O)Nc2cccc(-c3cccc(N4CCCC4)n3)c2)cc1 [Compound 3], the “effect on THC in drug discrimination” value [3] is listed as “reduced THC’s potency”.

For O=C(Nc1ccc(Cl)cc1)Nc1cccc(-c2ccc(F)cc2)c1 [Compound 4], the “prime-induced reinstatement of cocaine seeking” value [1] is listed as “attenuated prime-induced restatement of cocaine seeking” and the “seeking drugs of abuse” value [1] is listed as “less likely to seek drugs of abuse”.

With O=C(Nc1ccc(Cl)cc1)Nc1cc(-c2ccccc2)ccn1 [Compound 7, 1‐(4‐Chlorophenyl)‐3‐(4‐phenylpyridin‐2‐yl)urea] the “fold less potent than 2 in calcium assay” value [4] was 4.7 fold.

In the case of O=C(Nc1ccc(Cl)cc1)Nc1cncc(-c2ccccc2)c1 [Compound 9, 1‐(4‐Chlorophenyl)‐3‐(5‐phenylpyridin‐3‐yl)urea], the “fold less potent than 2 in calcium assay” value [4] is reported as 8.8 fold.

With O=C(Nc1ccc(Cl)cc1)Nc1ccnc(-c2ccccc2)c1 [Compound 10, 1‐(4‐Chlorophenyl)‐3‐(2‐phenylpyridin‐4‐yl)urea] the “fold less potent than 2 in calcium assay” value [4] was 7.1 fold.

With O=C(Nc1ccc(Cl)cc1)Nc1ccc(-c2ccccc2)s1 [Compound 11, 1‐(4‐Chlorophenyl)‐3‐(5‐phenylthiophen‐2‐yl)urea] the “inverse agonism (in words)” value [5] was “very little inverse agonism”, the “effect on drug-induced cocaine-seeking behavior” value [6] was “failed to significantly reduce” and the efflux ratio at 10 μM [7] was less than 2.5.

Source: paper PMC6953423 (Journal of medicinal chemistry, 2019)
